Laboratory results reported in patent US11459315B2, “Modulators of methyl modifying enzymes, compositions and uses thereof” (Constellation Pharmaceuticals, Inc., priority 2017, dated 2022).
Where two headings read alike, the source gives them in different places.

Columns and labels:
[1] = system: H3K27me3 mark in HeLa cells (EZH2); experiment: H3K27me3 Alpha Hela Assay (AlphaLISA); type: cell-based; conditions: HeLa cell assay, Table 3 classes, read-out: EC50 Cellular Activity
How it was run: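 HeLa cells (1,000/well) treated with ten 3-fold compound doses for 72 h at 37 °C; lysates extracted and H3K27me3 detected by AlphaLISA with anti-K27me3 acceptor beads, biotinylated anti-H3 (3 nM) and streptavidin donor beads. EC50 from DMSO-normalized dose-response curves; duplicate plate assessed viability.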

PRC2 containing wt EZH2 = PRC2 containing wt EZH2 (Homo sapiens (Human), UniProt Q15910); experiment: EZH2 residence time assay (100-fold dilution of pre-formed enzyme-inhibitor complex); type: biochemical
Chain of PRC2 containing wt EZH2 (Q15910 whole entry): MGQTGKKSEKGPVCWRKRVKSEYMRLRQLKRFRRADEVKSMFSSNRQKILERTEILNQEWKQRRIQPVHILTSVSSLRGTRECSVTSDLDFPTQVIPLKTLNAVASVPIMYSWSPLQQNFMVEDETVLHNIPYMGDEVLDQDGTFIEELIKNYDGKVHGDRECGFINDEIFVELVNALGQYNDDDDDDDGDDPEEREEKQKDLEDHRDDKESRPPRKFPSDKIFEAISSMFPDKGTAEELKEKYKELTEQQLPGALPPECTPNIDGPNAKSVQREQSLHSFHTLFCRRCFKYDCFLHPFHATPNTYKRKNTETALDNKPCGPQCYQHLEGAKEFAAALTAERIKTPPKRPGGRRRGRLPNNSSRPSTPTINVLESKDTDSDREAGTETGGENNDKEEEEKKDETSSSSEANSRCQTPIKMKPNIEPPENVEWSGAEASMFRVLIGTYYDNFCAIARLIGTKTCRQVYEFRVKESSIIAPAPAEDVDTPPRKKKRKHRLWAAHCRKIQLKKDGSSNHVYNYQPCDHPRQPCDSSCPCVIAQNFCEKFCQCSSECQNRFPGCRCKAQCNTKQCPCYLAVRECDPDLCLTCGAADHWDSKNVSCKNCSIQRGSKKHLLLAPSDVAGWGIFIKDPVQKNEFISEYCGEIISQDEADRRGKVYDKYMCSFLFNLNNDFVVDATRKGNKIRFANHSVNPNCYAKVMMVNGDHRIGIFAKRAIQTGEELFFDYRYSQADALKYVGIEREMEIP
Chain of PRC2 containing wt EZH2 (O75530 whole entry partner): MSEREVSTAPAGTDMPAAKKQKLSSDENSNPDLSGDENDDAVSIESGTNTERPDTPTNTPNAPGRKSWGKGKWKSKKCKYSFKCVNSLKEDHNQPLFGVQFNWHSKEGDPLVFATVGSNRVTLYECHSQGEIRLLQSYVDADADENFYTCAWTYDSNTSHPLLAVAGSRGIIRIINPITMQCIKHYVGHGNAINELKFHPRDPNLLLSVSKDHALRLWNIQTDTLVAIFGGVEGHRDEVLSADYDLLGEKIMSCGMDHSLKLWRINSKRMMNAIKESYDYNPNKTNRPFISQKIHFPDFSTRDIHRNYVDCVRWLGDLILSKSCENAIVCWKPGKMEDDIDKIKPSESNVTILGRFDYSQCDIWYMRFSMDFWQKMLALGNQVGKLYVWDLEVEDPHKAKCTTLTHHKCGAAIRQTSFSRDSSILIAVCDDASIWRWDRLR
Chain of PRC2 containing wt EZH2 (Q15022 whole entry partner): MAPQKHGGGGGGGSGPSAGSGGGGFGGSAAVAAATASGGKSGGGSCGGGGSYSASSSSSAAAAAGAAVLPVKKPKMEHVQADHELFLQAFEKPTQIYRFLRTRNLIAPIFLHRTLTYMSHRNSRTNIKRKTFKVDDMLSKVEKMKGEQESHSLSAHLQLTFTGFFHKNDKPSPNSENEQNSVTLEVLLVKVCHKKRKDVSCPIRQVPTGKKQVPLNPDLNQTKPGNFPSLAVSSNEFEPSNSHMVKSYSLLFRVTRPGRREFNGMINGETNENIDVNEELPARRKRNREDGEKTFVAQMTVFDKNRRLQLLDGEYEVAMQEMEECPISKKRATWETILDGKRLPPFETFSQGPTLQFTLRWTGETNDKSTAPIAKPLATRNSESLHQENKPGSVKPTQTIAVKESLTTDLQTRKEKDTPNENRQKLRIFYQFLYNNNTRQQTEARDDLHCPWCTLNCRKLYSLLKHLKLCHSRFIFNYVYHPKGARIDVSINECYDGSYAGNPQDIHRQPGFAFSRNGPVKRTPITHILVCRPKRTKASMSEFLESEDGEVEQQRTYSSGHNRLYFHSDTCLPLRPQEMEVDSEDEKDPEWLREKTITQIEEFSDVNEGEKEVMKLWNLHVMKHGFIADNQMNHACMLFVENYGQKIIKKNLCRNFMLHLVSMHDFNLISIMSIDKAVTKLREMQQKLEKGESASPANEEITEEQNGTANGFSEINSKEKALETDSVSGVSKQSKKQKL
Chain of PRC2 containing wt EZH2 (Q09028 whole entry partner): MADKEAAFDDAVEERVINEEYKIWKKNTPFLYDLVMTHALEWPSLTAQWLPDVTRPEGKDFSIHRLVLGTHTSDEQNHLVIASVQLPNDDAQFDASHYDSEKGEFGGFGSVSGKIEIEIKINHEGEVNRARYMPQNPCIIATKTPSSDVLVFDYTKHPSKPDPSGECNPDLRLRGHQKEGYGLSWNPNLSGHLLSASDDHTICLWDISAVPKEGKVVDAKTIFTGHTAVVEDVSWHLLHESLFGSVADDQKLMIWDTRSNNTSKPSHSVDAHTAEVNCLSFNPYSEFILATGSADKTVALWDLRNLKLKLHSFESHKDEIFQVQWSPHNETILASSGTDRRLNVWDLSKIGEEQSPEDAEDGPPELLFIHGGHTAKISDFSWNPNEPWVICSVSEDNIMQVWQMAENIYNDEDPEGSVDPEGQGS
Chain of PRC2 containing wt EZH2 (Q6ZN18 whole entry partner): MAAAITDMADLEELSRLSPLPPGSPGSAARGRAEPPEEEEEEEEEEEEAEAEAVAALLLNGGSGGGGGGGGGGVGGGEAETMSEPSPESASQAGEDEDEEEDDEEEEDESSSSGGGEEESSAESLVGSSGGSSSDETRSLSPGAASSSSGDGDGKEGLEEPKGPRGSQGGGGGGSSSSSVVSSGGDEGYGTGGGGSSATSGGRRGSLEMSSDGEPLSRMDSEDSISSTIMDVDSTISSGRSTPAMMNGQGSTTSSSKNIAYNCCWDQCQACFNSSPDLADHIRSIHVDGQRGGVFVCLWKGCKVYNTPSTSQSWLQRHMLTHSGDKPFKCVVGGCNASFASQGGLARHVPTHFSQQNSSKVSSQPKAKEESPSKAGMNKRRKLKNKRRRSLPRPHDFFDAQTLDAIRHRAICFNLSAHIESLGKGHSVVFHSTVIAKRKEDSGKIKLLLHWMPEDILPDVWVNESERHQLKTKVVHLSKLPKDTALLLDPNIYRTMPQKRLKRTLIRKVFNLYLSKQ
Experimental: EZH2 residence time assay: Compound residence times were assessed by monitoring the recovery of enzyme activity following a 100-fold dilution of pre-formed enzyme-inhibitor complex (dilution reaction), and comparing it to the activity of an undiluted control with the same final concentrations of all reagents (control reaction). Enzyme activity was measured by incorporation of ^3H-SAM into a biotinylated H3 peptide. […] For the control reaction, 0.202 nM PRC2 was pre-incubated with 1 μM activating peptide, 1.01 μM SAM, 1.01 μM ^3H-SAM, and compound at 6.06 times its Ki for 2 h in 138.6 μL of buffer, then the reaction was initiated by the addition of 1.4 μL 500 μM substrate peptide in water. Reactions were quenched at various time points spanning up to 10 hours, by transferring 8 μL aliquots from the reaction vessel to a plate containing 8 μL per well of STOP solution (50 mM Tris pH 8.5, 200 mM EDTA, 2 mM SAH). After the last time point, 12 μL of the quenched solutions were transferred to a streptavidin coated FlashPlate (PerkinElmer) containing 40 μL per well of STOP solution, incubated 1-8 h, washed, and read in a TopCount plate reader (PerkinElmer). A custom script was used to fit control reaction progress data to a straight line and dilution reaction progress data:
Where y is the product formed, t is the reaction time, vi is the initial velocity, vs is the steady state velocity, and kobs is the rate constant for the transition from the initial velocity phase of the curve to the steady state velocity phase of the curve. In fitting the dilution reaction progress data, vs was constrained to the slope of the line fitted to the control reaction progress data. The fitted value of kobs was then transformed into residence time:
Where τ is residence time, Ki is the inhibition constant, [EI] is the calculated equilibrium concentration of enzyme-inhibitor complex, [E] is the calculated equilibrium concentration of free enzyme, and [I] is the calculated equilibrium concentration of free inhibitor.

| SMILES | EC50 ([1]; Homo sapiens, HeLa) | residence time (PRC2 containing wt EZH2) | residence time (PRC2 containing wt EZH2; read-out: Residence Time) | EC50 [1] |
| --- | --- | --- | --- | --- |
| CSc1cc(C)[nH]c(=O)c1CNC(=O)c1c(C)n([C@H](C)C23CC(N(C)CC(F)(F)F)(C2)C3)c2ccccc12 [drawing 237] | 0.005 to 0.025 µM | 300 to 2100 min | – | – |
| COC1CN(C2CCC([C@@H](C)n3c(C)c(C(=O)NCc4c(SC)cc(C)[nH]c4=O)c4ccccc43)CC2)C1 (single isomer, unassigned) [drawing 219] | < 0.005 µM | A (value of greater than 35 hours) | – | – |
| COc1cc(C)[nH]c(=O)c1CNC(=O)c1c(C)n([C@H](C)C2CCN(CC(F)(F)F)CC2)c2ccccc12 | 0.005 to 0.025 µM | – | 30 to 300 min | – |
| CSc1cc(C)[nH]c(=O)c1CNC(=O)c1c(C)n([C@H](C)C2CCN(C3CC3)CC2)c2ncccc12 [drawing 256] | < 0.005 µM | 300 to 2100 min | – | – |
| CSc1cc(C)[nH]c(=O)c1CNC(=O)c1c(C)n([C@H](C)C2CCC(N3CC(OC(F)F)C3)CC2)c2ccccc12 (single isomer, unassigned) [drawing 252] | < 0.005 µM | > 2100 min | – | – |
| CSc1cc(C)[nH]c(=O)c1CNC(=O)c1c(C)n([C@H](C)C2CCC(NC3(C)COC3)CC2)c2ccccc12 (single isomer, unassigned) [drawing 205] | < 0.005 µM | A (value of greater than 35 hours) | – | – |
| Cc1cc(SC2CCC2)c(CNC(=O)c2c(C)n([C@H](C)C3CCN(CC(F)(F)F)CC3)c3ccccc23)c(=O)[nH]1 [drawing 267] | 0.025 to 0.125 µM | 30 to 300 min | – | – |
| COc1cc(C)[nH]c(=O)c1CNC(=O)c1c(C)n([C@H](C)C2CCC(N3CC(OC)C3)CC2)c2ccccc12 (single isomer, unassigned) [drawing 218] | – | C (a t value of greater than 0.5 hours but less or equal than 5 hours) | – | > 0.125 µM |
| COc1cc(C)[nH]c(=O)c1CNC(=O)c1c(C)n([C@H](C)C2CCC(N3CC(OC)C3)CC2)c2ccccc12 (single isomer, unassigned) [drawing 217] | > 0.125 µM | < 30 min | – | – |
| CSc1cc(C)[nH]c(=O)c1CNC(=O)c1c(C)n([C@H](C)C2OCC(NC3(C)COC3)CO2)c2ccccc12 (single isomer, unassigned) [drawing 227] | – | A (value of greater than 35 hours) | – | < 0.005 µM |
| Cc1cc(C)c(CNC(=O)c2c(C)n([C@H](C)C3CCC(NC4COC4)CC3)c3ccccc23)c(=O)[nH]1 (single isomer, unassigned) [drawing 209] | – | – | < 30 min | > 0.125 µM |
| CCOC1CN(C2CCC([C@@H](C)n3c(C)c(C(=O)NCc4c(SC)cc(C)[nH]c4=O)c4cccnc43)CC2)C1 (single isomer, unassigned) [drawing 261] | – | – | 300 to 2100 min | < 0.005 µM |
| Cc1cc(Cl)c(CNC(=O)c2c(C)n([C@H](C)C3OCC(N(C)C)CO3)c3ccccc23)c(=O)[nH]1 (single isomer, unassigned) [drawing 230] | – | D (a t value of less or equal than 0.5 hours) | – | 0.025 to 0.125 µM |
| Cc1cc(SC(F)F)c(CNC(=O)c2c(C)n([C@H](C)C3CCN(CC(F)(F)F)CC3)c3ccccc23)c(=O)[nH]1 [drawing 266] | 0.025 to 0.125 µM | < 30 min | – | – |
| CSc1cc(C)[nH]c(=O)c1CNC(=O)c1c(C)n([C@H](C)C2CCC(NC3COC3)CC2)c2ccccc12 (single isomer, unassigned) [drawing 214] | – | C (a t value of greater than 0.5 hours but less or equal than 5 hours) | – | 0.025 to 0.125 µM |
| CSc1cc(C)[nH]c(=O)c1CNC(=O)c1c(C)n([C@H](C)C2OCC(NC3(C)COC3)CO2)c2ccccc12 (single isomer, unassigned) [drawing 228] | – | D (a t value of less or equal than 0.5 hours) | – | > 0.125 µM |
| Cc1cc(Cl)c(CNC(=O)c2c(C)n([C@H](C)C3CCC(NC4COC4)CC3)c3ccccc23)c(=O)[nH]1 (single isomer, unassigned) [drawing 212] | – | C (a t value of greater than 0.5 hours but less or equal than 5 hours) | – | 0.025 to 0.125 µM |
| Cc1cc(C)c(CNC(=O)c2c(C)n([C@H](C)C3CCN(CC(C)(C)O)CC3)c3ccccc23)c(=O)[nH]1 | > 0.125 µM | < 30 min | – | – |
